Experiments:
[1] = system: mixed culture of nerve cells-glial cells; assay: Protecting effect on NMDA-induced nerve cell death (LDH release); format: cell-based, ICR mouse; details: 100 μM NMDA, LDH release after 24 hours
Protocol: Isolation and culture of nerve cells were performed by Choi's method (Choi, D. W. 1985, Neurosci. Lett., 58: 293-297). That is, the cortex was isolated in fetus ICR mouse that was 14 days pregnant, and then single cells were obtained from the tissue using pipette. The cells were aliquoted into 2×10^5/well density in a 24-well plate (Falcon) in which glial cells of cerebral cortex had been cultured in an incubator maintained at 37° C. with 5% CO2 for over 3 weeks. The culture medium was supplemented with MEM (minimum essential medium, Sigma), 2 mM glutamine, 21 mM glucose, 26.5 mM bicarbonate, 10% fetal bovine serum (FBS). In 3-5 days after aliquot, 10 μM Ara-C (cytosine arabinoside) was treated to suppress proliferation of neuroglia. And it was treated with 100 μM NMDA and 1 μg/mL or 2 μg/mL of each sample (compound) to induce the death of nerve cells due to excitable toxicity for 20 minutes, in 12-15 days after aliquot. Because of nerve cell death, lactate dehydrogenase (LDH) accumulated in proportion to the number of dead cells. In 24 hours after drug treatment, the amount of dehydrogenase (LDH) released to outside of cells was measured by using an […] measurement kit (CytoTox 96, Promega). After the reaction was completed, the change of absorbance depending on the amount of LDH was measured by using a microplate spectrophotometer.

[2] = system: superoxide dismutase (SOD); assay: Increase of superoxide dismutase (SOD) activity in mouse brain cells; format: cell-based; details: 100 μg/ml
Protocol: ROS inhibitory effect of compounds was represented to the dose suppressing 50% of production of reactive oxygen compared to control. […] The activity of superoxide dismutase (SOD) was measured by using a kit acquired in Sigma.

[3] = system: pentylentetrazole (PTZ)-induced convulsion; assay: Anti-convulsant effect, pentylentetrazole (PTZ) test; format: in vivo; details: 10 mg/kg intraperitoneally, PTZ 80 mg/kg subcutaneously; for mortality rate / Induction percentage of convulsion: (animals/total); for mortality rate: negative control 70(17/23); for Induction percentage of convulsion: negative control 100(23/23); for Initiation time of convulsion: negative control 5.0 ± 0.7; for Duration of convulsion: negative control 46.7 ± 3.3
Protocol: An experiment was performed by the method of Ali et al. (Ali, A. et al. 2006, Pharmacological Reports, 58: 242-245). A 10 mg/kg dose of compound was intraperitoneally administered to identify the anti-convulsant effect and the effect was observed (Table 8). Researching the process of activity was performed by the Anti-epileptic Drug Development Program (ADD) of NIH during development of the anti-convulsant drug. One of the assessed items of anti-convulsant activity in the first step of this program is the pentylentetrazole (PTZ) test. […] After 10 mg/kg of the testing drug was administered, assessment was performed by estimating the initiation time of convulsion, duration until convulsion completely disappeared and mortality rate. It was assessed as having an anti-convulsant effect when a single episode of clonic spasm was not shown over 5 seconds on at least one of the 4 laboratory animals after PTZ administration.

thoracic aorta of rats = assay: Relaxing effect on thoracic aorta contracted by phenylephrine (organ bath); set-up: species or system rats of SD species; details: Rattus norvegicus; 67 μg/mL; phenylephrine 0.5 μM; mean n = 3; read-out: Relaxation percentage
From the text: After male rats of SD species (250-300 g) were anesthetized by inhalation of ether, their thoracic aortas were extracted and put into a Krebs buffer (mM; NaCl 118, NaHCO3 27.3, KCl 4.8, MgSO4 1.2, KH2PO4 1.0, CaCl2 1.25, glucose 11.1). 2 mm of aortic ring was made under dissecting microscope and cultured in an organ bath to measure the tension of blood vessels. The organ bath was filled with Krebs buffer and saturated with 95% O2, 5% CO2 to maintain dissolved oxygen and physiological pH. Changing of tension was measured by a tension meter (Hugo-sachs, model K30) and recorded by physiological recorder (Coulbourn polygraph). The length of the blood vessels was increased step by step to make 1.0 g of basal tension for 90 minutes. The equilibrated blood vessel was contracted by phenylephrine (0.5 μM). When the contraction furrow reached equilibrium, compounds were added, followed by observation of relaxation response.

| Molecule | Inhibitory effect of cell death by NMDA-induced excitable neurotoxicity ([1]; 1 μg/ml compound) [%] | Inhibitory effect of cell death by NMDA-induced excitable neurotoxicity ([1]; 2 μg/ml compound) [%] | Increase of SOD activity, compared to control [2] | mortality rate [3] | Induction percentage of convulsion [3] | Initiation time of convulsion [3] [min] | Duration of convulsion [3] [min] | inhibition at 67 µg/mL (thoracic aorta of rats) [%] |
| --- | --- | --- | --- | --- | --- | --- | --- | --- |
| 3-[3-(4-{N-[3-(2,4-dioxo-1,4-dihydro-2H-quinazolin-3-yl)propyl]-N-benzylamino}butyl)-N-benzylamino]propyl-1H-quinazoline-2,4-dione [Compound 15] | 22.4 | 22.3 | 1.3 ± 3.1 | 83(5/6) % | 83(5/6) % | 25.7 ± 7.2 | 34.3 ± 7.2 |  |
| CC(C)(C)OC(=O)N(CCCCNCCCn1c(=O)[nH]c2ccccc2c1=O)CCCn1c(=O)[nH]c2ccccc2c1=O [Compound 11, [3-(2,4-dioxo-1,4-dihydro-2H-quinazolin-3-yl)propyl]-{4-[3-(2,4-dioxo-1,4-dihydro-2H-quinazolin-3-yl)propylamino]butyl}carbamic Acid tert-butyl ester] | 15.0 |  | 2.3 ± 3.4 | 17(1/6) % | 100(6/6) % | 10.1 ± 4.9 | 44.9 ± 5.8 | 10.9 |
| CCOC(=O)N(CCCCN(CCCn1c(=O)[nH]c2ccccc2c1=O)C(=O)OCC)CCCn1c(=O)[nH]c2ccccc2c1=O [Compound 16, [3-(2,4-dioxo-1,4-dihydro-2H-quinazolin-3-yl)propyl]-(4-{[3-(2,4-dioxo-1,4-dihydro-2H-quinazolin-3-yl)propyl]ethoxycarbonylamino}butyl)carbamic Acid ethyl ester] | 18.1 |  | 7.5 ± 2.3 | 0(0/6) % | 100(6/6) % | 7.6 ± 1.7 | 6.4 ± 2.3 |  |
| CC(C)(C)OC(=O)N(CCCCN(CCCn1c(=O)[nH]c2ccccc2c1=O)C(=O)OC(C)(C)C)CCCn1c(=O)[nH]c2ccccc2c1=O [Compound 17, (4-{tert-butoxycarbonyl-[3-(2,4-dioxo-1,4-dihydro-2H-quinazolin-3-yl)propyl]amino}butyl)-[3-(2,4-dioxo-1,4-dihydro-2H-quinazolin-3-yl)propyl]carbamic acid tert-butyl ester] | 21.0 | 10.7 | 0.3 ± 0.0 |  |  |  |  | 51.7 |
| CC(=O)N(CCCCN(CCCn1c(=O)[nH]c2ccccc2c1=O)C(C)=O)CCCNC(=O)c1ccc(O)cc1 [Compound 21, N-{3-[acetyl-(4-{acetyl-[3-(2,4-dioxo-1,4-dihydro-2H-quinazolin-3-yl)propyl]amino}butyl)amino]propyl}-4-hydroxybenzamide] | 19.6 | 16.6 | −0.3 ± 3.7 | 0(0/6) % | 67(4/6) % | 22.2 ± 11.9 | 6.7 ± 3.1 | 2.6 |
| O=C(N(CCCCNCCCn1c(=O)[nH]c2ccccc2c1=O)CCCn1c(=O)[nH]c2ccccc2c1=O)C(F)(F)F [Compound 36, N-[3-(2,4-dioxo-1,4-dihydro-2H-quinazolin-3-yl)propyl]-N-{4-[3-(2,4-dioxo-1,4-dihydro-2H-quinazolin-3-yl)propylamino]butyl}-2,2,2-trifluoroacetamide] | 32.2 | 18.4 | 4.9 ± 1.2 | 33(2/6) % | 100(6/6) % | 8.9 ± 2.3 | 25.1 ± 9.7 |  |
